Drawing on PubChem BioAssay AID248 (DTP/NCI, 2004), this text covers T/C for 13 molecules.

This test concerns L1210 leukemia ip in BDF1 mice, survival T/C. Description: NCI In Vivo Anticancer Drug Screen. Data for tumor model L1210 Leukemia (intraperitoneal) in B6D2F1 (BDF1) mice. To be noted: endpoint: mean survival time, higher = longer survival. The gist of the method: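 Transplantable tumor model; survival measured in treated vs vehicle control mice. Value = treated/control.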
Setting [1] is: dose: 100.0 mg/kg/injection, schedule: Q01DX009 (ip), vehicle: saline.
The mark [2] stands for this setting: dose: 100.0 mg/kg/injection, schedule: Q04DX003 (ip), vehicle: saline.
The mark [3] stands for this setting: dose: 200.0 mg/kg/injection, schedule: Q04DX003 (ip), vehicle: saline.
Setting [4] is: dose: 400.0 mg/kg/injection, schedule: Q04DX003 (ip), vehicle: saline.
The mark [5] stands for this setting: dose: 100.0 mg/kg/injection, schedule: Q04DX003 (ip), vehicle: saline with Tween-80.
Setting [6] is: dose: 200.0 mg/kg/injection, schedule: Q04DX003 (ip), vehicle: saline with Tween-80.

SMILES strings stand for the structures. Several values for one entry are separate records, joined by “and”; a condition that tells them apart may be missing. Identical values can stand only once. Inconclusive results and toxic doses are left out. Square brackets hold non-standard residues; d marks the D form. Peptide text beside a SMILES is read from it. ξ: configuration not given here. ξV = CC(C)C(N)C(=O)O

In the case of `Nc1c(Cl)c(Cl)c2c(c1Cl)/C(=N/O)c1cc(Cl)ccc1-2`, the T/C runs as follows: (dose: 100.0 mg/kg/injection, schedule: Q01DX001 (ip), vehicle: carboxymethylcellulose (CMC)) 95 % of control; (dose: 200.0 mg/kg/injection, schedule: Q01DX001 (ip), vehicle: carboxymethylcellulose (CMC)) 95 % of control; (dose: 400.0 mg/kg/injection, schedule: Q01DX001 (ip), vehicle: carboxymethylcellulose (CMC)) 103 % of control.

Regarding `CC(=O)O/N=C(/CCC(=O)O)c1ccccc1`, the T/C is 97 % of control (dose: 50.0 mg/kg/injection, schedule: Q04DX002 (ip), vehicle: saline with Tween-80); 108 % of control (dose: 100.0 mg/kg/injection, schedule: Q04DX002 (ip), vehicle: saline with Tween-80); 94 % of control (dose: 200.0 mg/kg/injection, schedule: Q04DX002 (ip), vehicle: saline with Tween-80).

For the molecule `Cc1c[n+]([O-])ccc1[N+](=O)[O-]`, the T/C reads like this: (dose: 25.0 mg/kg/injection, schedule: Q01DX009 (ip), vehicle: saline) 90 % of control; (dose: 25.0 mg/kg/injection, schedule: Q04DX003 (ip), vehicle: saline) 105 % of control; (dose: 50.0 mg/kg/injection, schedule: Q01DX009 (ip), vehicle: saline) 90 % of control; (dose: 50.0 mg/kg/injection, schedule: Q04DX003 (ip), vehicle: saline) 97 % of control; under setting [1], 88 % of control; under setting [2], 90 % of control and 91 % of control.

As for `CCCCCC(=O)/C=C/c1ccc(C)cc1`, the T/C is, setting by setting: under setting [2], 102 % of control; under setting [3], 100 % of control; under setting [4], 112 % of control.

Regarding `O=C(O)c1ccc(S(=O)(=O)O)cc1C(=O)O`, the T/C by setting is: (dose: 50.0 mg/kg/injection, schedule: Q01DX001 (sc), vehicle: olive oil, sesame oil, peanut oil) 104 % of control; (dose: 100.0 mg/kg/injection, schedule: Q01DX001 (sc), vehicle: olive oil, sesame oil, peanut oil) 102 % of control; (dose: 100.0 mg/kg/injection, schedule: Q01DX009 (ip), vehicle: saline with Tween-80) 89 % of control; under setting [2], 104 % of control; (dose: 200.0 mg/kg/injection, schedule: Q01DX001 (sc), vehicle: olive oil, sesame oil, peanut oil) 96 % of control; (dose: 200.0 mg/kg/injection, schedule: Q01DX009 (ip), vehicle: saline with Tween-80) 88 % of control. Besides, the T/C under setting [3] was 102 % of control; the T/C (dose: 400.0 mg/kg/injection, schedule: Q01DX001 (sc), vehicle: olive oil, sesame oil, peanut oil) was 98 % of control; the T/C under setting [4] was 101 % of control.

With `O=C(CCCN1CCC2(CC1)OC(=O)N(c1ccc(F)cc1)C2=O)c1cccs1`, the T/C was 94 % of control (dose: 50.0 mg/kg/injection, schedule: Q01DX001 (ip), vehicle: Klucel (hydroxypropylcellulose) (HPC)); 91 % of control (dose: 100.0 mg/kg/injection, schedule: Q01DX001 (ip), vehicle: Klucel (hydroxypropylcellulose) (HPC)); 88 % of control (dose: 200.0 mg/kg/injection, schedule: Q01DX001 (ip), vehicle: Klucel (hydroxypropylcellulose) (HPC)).

Take `CCC(Cl)COP(=O)(OCC(Cl)CC)O/C(C)=C(\C)OP(=S)(OCC(Cl)CC)OCC(Cl)CC` (stereo unspecified): the T/C is, setting by setting: (dose: 100.0 mg/kg/injection, schedule: Q04DX002 (sc), vehicle: olive oil, sesame oil, peanut oil) 108 % of control; (dose: 200.0 mg/kg/injection, schedule: Q04DX002 (sc), vehicle: olive oil, sesame oil, peanut oil) 102 % of control; (dose: 400.0 mg/kg/injection, schedule: Q04DX002 (sc), vehicle: olive oil, sesame oil, peanut oil) 102 % of control.

For the molecule `CC(C)C(NC(=O)CNC(=O)CN)C(=O)O` (stereo not drawn) (H-Gly-Gly-[ξV]-OH), the T/C under setting [1] is 104 % of control; the T/C under setting [2] is 106 % of control; the T/C (dose: 200.0 mg/kg/injection, schedule: Q01DX009 (ip), vehicle: saline) is 102 % of control; the T/C under setting [3] was 103 % of control; the T/C (dose: 400.0 mg/kg/injection, schedule: Q01DX009 (ip), vehicle: saline) was 102 % of control; the T/C under setting [4] is 106 % of control.

`Cc1ccc([N+](=O)[O-])cc1NC(=O)Oc1ccc(Cl)cc1Cl`: the T/C is, setting by setting: under setting [5], 104 % of control; under setting [6], 100 % of control.

`O=C(Nc1ccc(Cl)cc1Cl)c1cc(Cl)cc(Cl)c1Br`: the T/C under setting [5] was 101 % of control; the T/C under setting [6] is 92 % of control; the T/C (dose: 400.0 mg/kg/injection, schedule: Q04DX003 (ip), vehicle: saline with Tween-80) was 92 % of control.

Regarding `O=c1c2cccc3cccc(c32)c2nc3ccccc3n12`, the T/C runs as follows: (dose: 6.25 mg/kg/injection, schedule: Q01DX009 (ip), vehicle: saline with Tween-80) 120 % of control; (dose: 12.5 mg/kg/injection, schedule: Q01DX009 (ip), vehicle: saline with Tween-80) 116 % of control; (dose: 25.0 mg/kg/injection, schedule: Q01DX009 (ip), vehicle: saline with Tween-80) 100 % of control; under setting [5], 104 % of control; under setting [6], 103 % of control.

For the molecule `CCCCN(CCCC)CCNc1ccc(Cl)c2oc3cc(C)ccc3c(=O)c12`, the T/C is, setting by setting: (dose: 12.5 mg/kg/injection, schedule: Q01DX009 (ip), vehicle: Klucel (hydroxypropylcellulose) (HPC)) 95 % of control; (dose: 12.5 mg/kg/injection, schedule: Q04DX003 (ip), vehicle: saline with Tween-80) 94 % of control; (dose: 25.0 mg/kg/injection, schedule: Q01DX009 (ip), vehicle: Klucel (hydroxypropylcellulose) (HPC)) 92 % of control; (dose: 25.0 mg/kg/injection, schedule: Q04DX003 (ip), vehicle: saline with Tween-80) 95 % of control; (dose: 50.0 mg/kg/injection, schedule: Q01DX001 (ip), vehicle: saline) 93 % of control; (dose: 50.0 mg/kg/injection, schedule: Q01DX009 (ip), vehicle: Klucel (hydroxypropylcellulose) (HPC)) 93 % of control. In addition, the T/C was 87 % of control (dose: 50.0 mg/kg/injection, schedule: Q04DX003 (ip), vehicle: saline with Tween-80); 98 % of control (dose: 100.0 mg/kg/injection, schedule: Q01DX001 (ip), vehicle: saline); 95 % of control (dose: 100.0 mg/kg/injection, schedule: Q01DX009 (ip), vehicle: Klucel (hydroxypropylcellulose) (HPC)); 93 % of control (dose: 200.0 mg/kg/injection, schedule: Q01DX001 (ip), vehicle: saline); 98 % of control (dose: 400.0 mg/kg/injection, schedule: Q01DX001 (ip), vehicle: saline).

Regarding `NC(=O)CNC1=C(N2CC2)C(=O)C(NCC(N)=O)=C(N2CC2)C1=O`, the T/C runs as follows: (dose: 0.12 mg/kg/injection, schedule: Q04DX003 (ip), vehicle: saline) 106 % of control; (dose: 0.25 mg/kg/injection, schedule: Q04DX003 (ip), vehicle: saline) 101 % of control; (dose: 0.5 mg/kg/injection, schedule: Q04DX003 (ip), vehicle: saline) 116 % of control; (dose: 1.0 mg/kg/injection, schedule: Q04DX003 (ip), vehicle: saline) 119 % of control; (dose: 1.25 mg/kg/injection, schedule: Q01DX001 (ip), vehicle: saline) 102 % of control; (dose: 1.25 mg/kg/injection, schedule: Q01DX009 (ip), vehicle: saline) 102 % of control. For the same molecule, the T/C is, setting by setting: (dose: 2.5 mg/kg/injection, schedule: Q01DX001 (ip), vehicle: saline) 100 % of control; (dose: 2.5 mg/kg/injection, schedule: Q01DX009 (ip), vehicle: saline) 124 % of control; (dose: 5.0 mg/kg/injection, schedule: Q01DX001 (ip), vehicle: saline) 108 % of control; (dose: 5.0 mg/kg/injection, schedule: Q01DX009 (ip), vehicle: saline) 163 % of control; (dose: 8.0 mg/kg/injection, schedule: Q04DX003 (ip), vehicle: saline) 193 % of control; (dose: 10.0 mg/kg/injection, schedule: Q01DX001 (ip), vehicle: saline) 115 % of control. The T/C was 158 % of control and 191 % of control (dose: 10.0 mg/kg/injection, schedule: Q01DX009 (ip), vehicle: saline); 122 % of control (dose: 12.0 mg/kg/injection, schedule: Q04DX003 (ip), vehicle: saline).
